Data on eight compounds can be found in PubChem BioAssay (NCI).

Common to all, as to experiment: NCI tumour cell line growth inhibition, 48 h
Assay [1] deals with LOX IMVI melanoma.
Assay [2] has as its system MDA-MB-231 breast.
The test system of assay [3] is SNB-75 CNS.
In assay [4] the test system is UO-31 renal.
The subject of assay [5] is CCRF-CEM leukemia.
For assay [6], the system named is T-47D breast.
Assay [7] has as its system HT29 colon.
Assay [8] deals with NCI-H23 lung.
For assay [9], the system named is HCC-2998 colon.
In assay [10] the test system is HOP-62 NSCLC.

SMILES strings stand for the structures. Values joined by “and” are separate entries in the source; they are usually repeats but may differ in a detail not shown here. Equal values may be shown once.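 Values below derive from 48-hour exposures of cells grown in 96-well plates, with endpoints linearly interpolated between the two concentrations bracketing the appropriate inhibition level. GI50: concentration for 50% inhibition of growth. At the TGI there is no net growth.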 Where a SMILES comes first, the peptide text is derived from it. Bridges are numbered along the chain shown (N, C = ends). [ ]: non-standard residue; d: D form. The star is where a group is joined. ξ: configuration not given here. ξDab(CH2SO3H) = NC(CCNCS(=O)(=O)O)C(=O)O; Heptanoyl(6-Me) = CC(C)CCCCC(=O)*; Dab = NCC[CH](N)C(=O)O

With `S=C(NCCNC(=S)[S][Sn]([c]1ccccc1)([c]1ccccc1)[c]1ccccc1)[S][Sn]([c]1ccccc1)([c]1ccccc1)[c]1ccccc1`, the GI50 is 0.0152 µM in [1]; 0.0207 µM in assay [2]; 0.0162 µM in assay [3]; 0.0337 µM in assay [4]; 0.0179 µM in assay [5]; 0.02 µM in [6]. Also, the GI50 was 0.019 µM in assay [7], 0.0273 µM in assay [8], 0.0219 µM in assay [9] and 0.0677 µM in [10]. The TGI in assay [1] came out at 0.0541 µM; in [2], 0.0957 µM; in [3], 0.087 µM; in assay [4], 0.1 µM; in assay [5], 0.657 µM; in assay [6], 0.091 µM. The TGI in assay [7] is 0.0584 µM; in [8], 0.119 µM; in [9], 0.0764 µM; in assay [10] it was 0.147 µM.
Turning to `Cn1nc(C(F)(F)F)cc1-c1c[nH]c(OCc2ccc(Cl)cc2)c(-c2ccc(Cl)c(C(F)(F)F)c2)c1=O`, the GI50 in [1] is 1.23 µM; in assay [2], 1.13 µM; in [3], 0.872 µM; in assay [4], 1.05 µM; in assay [5], 0.998 µM; in assay [6], 0.803 µM. Further, the GI50 in assay [7] is 1.51 µM; in assay [8], 1.05 µM; in assay [9], 1.23 µM; in assay [10], 1.3 µM. Also, the TGI is 3.56 µM in assay [1]; 3.51 µM in assay [2]; 2.72 µM in assay [3]; 3.56 µM in assay [4]; greater than 50 µM in assay [5]; 3.27 µM in [6]. Besides, the TGI in assay [7] was greater than 47.5 µM; in assay [8], 5.95 µM; in assay [9], 6.56 µM; in assay [10], 3.55 µM.
For the compound `C[C@@H](NC(=O)/C(C#N)=C/c1ccc([N+](=O)[O-])cc1)c1ccccc1`, the GI50 is 1.94 µM in assay [1]; 2.3 µM in [2]; 2.19 µM in [3]; 0.559 µM in assay [4]; 2.56 µM in [5]; 5.53 µM in assay [6]. Moreover, the GI50 in assay [7] is 4.85 µM; in assay [8], 2.08 µM; in assay [9], 1.87 µM; in assay [10], 2.88 µM. For the same compound, the TGI was 4.64 µM in assay [1]; 5.23 µM in [2]; 8.33 µM in assay [3]; 1.06 µM in assay [4]; greater than 38.9 µM in [5]; 26.4 µM in assay [6]. Moreover, the TGI in assay [7] came to 10.2 µM; in assay [8] it was 5.02 µM; in assay [9], 3.53 µM; in assay [10] it was 8.91 µM.
Regarding `CCC(C)C1NC(=O)C(CCNCS(=O)(=O)O)NC(=O)C(NC(=O)C(CCNCS(=O)(=O)O)NC(=O)C(NC(=O)C(CCNCS(=O)(=O)O)NC(=O)CCCCC(C)C)C(C)O)CCNC(=O)C(C(C)O)NC(=O)C(CCNCS(=O)(=O)O)NC(=O)C(CCNCS(=O)(=O)O)NC(=O)C(C(C)CC)NC1=O` (centres undefined) ({Heptanoyl(6-Me)}-[ξDab(CH2SO3H)]T[ξDab(CH2SO3H)][Dab][ξDab(CH2SO3H)]II[ξDab(CH2SO3H)][ξDab(CH2SO3H)]T; lactam 4-C; configuration not given here), the GI50 in assay [1] is 5.21 µM; in assay [2], 5.82 µM; in assay [3], 1.58 µM; in [4] it was greater than 25 µM; in assay [6], greater than 25 µM; in assay [7], 7.92 µM. For the same compound, the GI50 in assay [8] is 7.41 µM; in assay [9] it was 5.28 µM; in assay [10], 8.74 µM. In addition, the TGI in assay [1], in assay [2], in assay [3], in assay [4], in [6] and in [7] was greater than 25 µM throughout. Besides, the TGI was greater than 25 µM in [8], 14.2 µM in assay [9] and greater than 25 µM in assay [10].
For `N#Cc1c(N)n2c(nc1=Nc1ccc(Cl)cc1)sc1cc(Cl)ccc12`, the GI50 in [1] is 13.5 µM; in assay [2], 7.28 µM; in assay [3] it was 5.07 µM; in assay [5] it was 4.21 µM; in assay [6], greater than 100 µM; in assay [7], 5.67 µM and 3.77 µM. The GI50 was 2.23 µM in assay [9] and 4.6 µM in [10]. For the same compound, the TGI in assay [1] is greater than 100 µM; in assay [2], 71 µM; in [3] it was greater than 100 µM; in [6], greater than 100 µM; in assay [7], greater than 100 µM; in assay [8], 42.4 µM. Moreover, the values for the TGI in [9] and in [10] were 8.94 µM and 30.1 µM, respectively.
For the compound `N#C[Se]CCN1C(=O)C2C(C1=O)[C@H]1C=C[C@@H]2S1` (some centres undefined), the GI50 in assay [1] was 1.67 µM; in assay [2], 2.24 µM; in [3], 1.39 µM; in [4] it was 1.36 µM; in assay [5] it was 1.84 µM; in assay [6] it was 2.52 µM. Further, the GI50 was 2.65 µM in assay [7], 2.46 µM in [8] and 2.18 µM in [9]. The TGI in assay [1] is 4.12 µM; in [2], 5.2 µM; in assay [3] it was 3.85 µM; in assay [4], 2.9 µM; in [5], 6.14 µM; in assay [6], 7.78 µM. Moreover, the values for the TGI in assay [7], in [8] and in assay [9] were 8.98 µM, 6.51 µM and 5.44 µM, respectively.
Take `CCCCCCn1c(-c2ccc(C(=O)O/N=C(\N)c3ccc4ccccc4c3)cc2)nc(-c2ccccc2)c1-c1ccccc1`: the GI50 in assay [2] is 17.8 µM; in assay [3] it was 2.18 µM; in [4], 2.17 µM; in [5], 1.51 µM; in assay [6], 4.99 µM; in assay [7], greater than 100 µM. The figures for the GI50 in assay [8], in [9] and in [10] were 7.57 µM, greater than 100 µM and 5.77 µM, respectively. In addition, the TGI in [2] is greater than 100 µM; in assay [3] it was 20.1 µM; in assay [4] it was greater than 100 µM; in assay [5] it was greater than 100 µM; in [6] it was greater than 100 µM; in assay [7], greater than 100 µM. Besides, the TGI in assay [8], in assay [9] and in assay [10] was greater than 100 µM each time.
In the case of `COC(=O)C1=CO[C@@H](OC2OC(CO)C(O)C(O)C2O)[C@H]2[C@@H](C)[C@@H](O)[C@@H](O)[C@@H]12` (some centres undefined), the TGI in assay [1], in assay [2], in [3], in assay [4], in assay [6] and in assay [7] was greater than 100 µM in each case. Further, the TGI in assay [8], in assay [9] and in [10] was greater than 100 µM in each case.
